Assay results reported in publication PMC10388363, “Novel 1,4-Dihydropyridines as Specific Binders and Activators of SIRT3 Impair Cell Viability and Clonogenicity and Downregulate Hypoxia-Induced Targets in Cancer Cells” (Journal of Medicinal Chemistry, 2023).
Where two headings read alike, the source gives them in different places.

How the values were obtained:
Assay type in all cases: cell-based, human
MDA-MB-231 cells = assay: Cell viability / cell death, trypan blue exclusion, MDA-MB-231; conditions: for IC50: MDA-MB-231, 48 h, read-out: IC50 reducing cell viability
Protocol: Afterward, the selected compounds 3a–d were assayed at 50 μM for 24 and 48 h in CAL-62 and MDA-MB-231 cells to assess their ability to impair the cell viability and colony formation in either normoxia or hypoxia-induced condition, the latter obtained by adding a 200 μM cobalt chloride solution, as described in previous reports[69] (Figure 8). Most cancer cells, mainly solid types, are known to have an altered metabolism due to hypoxia, a non-physiological level of oxygen tension, which contributes to therapy resistance by causing cellular quiescence.[70] Moreover, hypoxic cancer cells can induce several factors that lead to cell proliferation and colony formation.[71]
(§1) Breast cancer cell line MDA-MB-231, anaplastic thyroid cancer cell line CAL-62 and human keratinocytes HaCaT were purchased from ATCC and were cultured in RPMI 1640 medium (R0883 Sigma Aldrich-MERCK) (MDA-MB-231 and CAL-62) or DMEM medium (11965092, Gibco) supplemented with 10% fetal bovine serum (Sigma-Aldrich-MERCK, F9665), 2 mM glutamine (G7513; Sigma-Aldrich-MERCK), 100 units/mL penicillin and 0.1 mg/mL streptomycin (P0781; Sigma-Aldrich-MERCK). Adherent cells were detached by Trypsin–EDTA solution (TA049; Sigma-Aldrich-MERCK). Cells were maintained at 37 °C in humidified incubator with 5% CO2. Cells were treated with […] (CoCl2) (Merck; C8661) dissolved in distilled, sterile water for 24 h to induce hypoxia (200 μM). Hypoxic and normoxic cells were also treated with 10/50 μM of the indicated compounds (dissolved in DMSO) for 48 h, maintaining the CoCl2 in the culture medium for hypoxic conditions. SIRT3 inhibitor 3-TYP was dissolved in DMSO and added to a final concentration of 1 μM for 24 and/or 48 h.
(§2) Cell viability was assessed by the trypan blue exclusion assay. At the end of treatments, cells were harvested and stained with 0,4% trypan blue (Merck; T8154). The cell suspension was applied to a hemocytometer and counted with phase contrast microscopy (NIKON EclipseTE2000U, Nikon Netherlands, Amsterdam, The Netherlands).

HaCaT cells = assay: Cell viability / cell death in healthy HaCaT cells; conditions: for toxicity against healthy HaCaT cells: 5, 10, and 25 μM, 24 and 48 h; for Cell death (%) T24 / Cell death (%) T48: HaCaT; for Cell death (%) T24: 24 h; for Cell death (%) T48: 48 h
Protocol: as §1, with “Hypoxic and normoxic cells were also treated with 10/50 μM of the indicated compounds (dissolved in DMSO) for 48 h, maintaining the CoCl2 in the culture medium for hypoxic conditions.” left out
as §2

[1] = system: HIF-1α, EPAS-1, and CA-IX protein expression in MDA-MB-231; assay: Western blot of HIF-1α, EPAS-1 and CA-IX in MDA-MB-231 cells under hypoxia; conditions: MDA-MB-231, 50 μM, 48 h, hypoxia
Protocol: Based on these findings, we decided to assess the ability of the SIRT3 activators 3a–d to impair HIF-1α, EPAS-1, and CA-IX protein expression in CAL-62 (Figure 10A–F) and MDA-MB-231 (Figure 11A–F) cell lines treated with the compounds at 50 μM for 48 h and under hypoxia conditions.
as §1
The following antibodies were used in this study: ACTB (Merck; A5316), HIF1-α (Cell Signaling; 14179), HIF2/EPAS-1 (Santa Cruz Biotechnology sc-13596), HXKII (Santa Cruz Biotechnology sc-6521), CAIX (Novus Biotechnology NB100-417), SIRT3 (Cell Signaling; 2627S), MnSOD (Abcam ab13533), MnSOD K68 (Abcam ab137037), MnSOD K122 (Abcam ab214675), peroxidase-conjugated AffiniPure Goat Anti-Rabbit IgG (H + L) (Jackson ImmunoResearch; 111-035-003), and peroxidase-conjugated AffiniPure Goat Anti-Mouse IgG (H + L) (Jackson ImmunoResearch; 115-035-062).
Treated and untreated cells were collected and centrifuged at 3000 rpm for 5 min. After removing the supernatant, cells were lysed in 70 μL of lysis buffer containing: 50 mM Tris-Cl (Merck; 93352), 250 mM sodium chloride (NaCl, Merck; S7653), 5 mM ethylenediaminetetraacetic acid (EDTA; Merck; E6758), 0.1% Triton X-100 and 0.1 mM dithiothreitol (Merck; D9163) plus 1 mM phenylmethylsulfonyl fluoride (PMSF, Merck; 93482), protease inhibitor cocktail (PI; Merck; P8340), 1 mM sodium orthovanadate (NA3VO4, Merck; S6508), and 10 mM sodium fluoride (NaF, Merck; 201154) (lysis buffer). After 30 min on ice, samples were centrifuged at 13,000 rpm for 10 min at 4 °C, and the supernatants collected. Protein concentration was determined by the Bradford assay (Bio-Rad; 500-0205). The equivalent of 15 or 50 μg of protein was boiled for 5 min, electrophoresed onto denaturing SDS-PAGE gel, and transferred onto a […] nitrocellulose membrane (Bio-Rad; 162-0115). After blocking with 5% milk, membranes were incubated with the appropriate primary antibody overnight. The next day, after three washes with 0.1% Tween 20 (Merck; P9416) in PBS (PBST) for 30 min at rt, membranes were incubated with the appropriate secondary antibody for 1 h at rt. After three more washes in PBST, the detection of the relevant protein was assessed by enhanced chemiluminescence (Lite Ablot TURBO, Euro-Clone; EMP012001). Densitometric analysis of the bands, relative to ACTB, was performed using ImageJ Software v1.51 (NIH, Bethesda, MD, USA).

[2] = MDA-MB-231, 50 μM, 48 h, hypoxia
[3] = MDA-MB-231, 50 μM, 48 h, normoxia

Row | Compound | reduction viability (MDA-MB-231 cells; [2]) | reduction viability (MDA-MB-231 cells; [3]) | toxicity against healthy HaCaT cells (HaCaT cells) | EPAS-1 protein levels [1] | HIF-1α protein levels [1] | Cell death (%) T24 (HaCaT cells; 5 μM) | Cell death (%) T48 (HaCaT cells; 5 μM) | Cell death (%) T24 (HaCaT cells; 10 μM) | Cell death (%) T48 (HaCaT cells; 10 μM) | Cell death (%) T24 (HaCaT cells; 25 μM) | Cell death (%) T48 (HaCaT cells; 25 μM) | CA-IX protein expression [1] | IC50 (MDA-MB-231 cells; Homo sapiens, hypoxia) | IC50 (MDA-MB-231 cells; Homo sapiens, normoxia) | viability at 10 µM (MDA-MB-231 cells; Homo sapiens, MDA-MB-231, 10 μM, 48 h, read-out: Cell viability (%) T48) | reduction in cell viability (%) at 50 µM (MDA-MB-231 cells; Homo sapiens, MDA-MB-231, 50 μM, 24 h, normoxia, read-out: viability impairment) | Cell death (%) T48 (MDA-MB-231 cells; MDA-MB-231, 10 μM, 48 h)
1 | CCOC(=O)C1=CN(C(=O)c2cccc(OC)c2)C=C(C(=O)OCC)C1c1ccccc1 [Compound 3a, Diethyl 1-(3-methoxybenzoyl)-4-phenyl-1,4-dihydropyridine-3,5-dicarboxylate] | 11% | 60% | – | – | – | – | – | – | – | – | – | – | – | – | – | – | –
2 | CCOC(=O)C1=CN(C(=O)c2ccc(OC)c(OC)c2)C=C(C(=O)OCC)C1c1ccccc1 [Compound 3c, Diethyl 1-(3,4-dimethoxybenzoyl)-4-phenyl-1,4-dihydropyridine-3,5-dicarboxylate] | – | – | negligible toxicity | significantly reduced | significantly reduced | – | – | – | – | – | – | – | – | – | – | – | –
3 | CCOC(=O)C1=CN(C(=O)c2cc(OC)cc(OC)c2)C=C(C(=O)OCC)C1c1ccccc1 [Compound 3d, Diethyl 1-(3,5-dimethoxybenzoyl)-4-phenyl-1,4-dihydropyridine-3,5-dicarboxylate] | 75% | 75% | some degree of cell viability reduction and cell death only after 48 h treatment and at higher concentrations (10 and 25 μM) | significantly reduced | significantly reduced | 3,9% | 16,1% | 8,4% | 33,9% | 15,3% | 47,3% | most potent | 10.6 µM | 3.64 µM | 36.3% | 34% | 63,6%
